Experiment [1] deals with Vasopressin V2. The experiment can be described thus: Vasopressin V2 Antagonist Activity in Conscious Hydrated Rats. The note with it: 10 mg/kg orally, N = 2, AVP 0.4 μg/kg intraperitoneally; for Osmolality (mOsm/kg): urine. It counts as in vivo, rat. Here is the method: Vasopressin V2 Antagonist Activity in Conscious Hyrdated Rats
Conscious hydrated rats are treated with compounds under study from 0.1 to 100 mg/kg orally or vehicle. Two to four rats are used for each compound. One hour later, arginine vasopressin (AVP, antidiuretic hormone, ADH) dissolved in peanut oil is administered at 0.4 μg/kg intraperitoneally. Two rats in each test would not receive arginine vasopressin but only the vehicle (peanut oil) to serve as water-loading control. Twenty minutes later each rat is given 30 mL/kg of deionized water orally by gavage and is placed individually in a metabolic cage equipped with a funnel and a graduated glass cylinder to collect urine for four hours. Urine volume is measured and osmolality analyzed by use of a Fiske One-Ten osmometer (Fiske Assoc., Norwood, Mass. U.S.A.). Urinary sodium, potassium, and chloride are analyzed by use of ion-specific electrodes in a Beckman E3(Electrolyte 3) Analyzer.
In the following results, […] and decreased osmolality relative to AVP-control indicates activity.

The target in experiment [2] is T1, Rat Kidney Medullary V2 Receptors (Rattus norvegicus, UniProt Q00788).
T1 construct: Medullary tissues from rat kidneys are dissected out; from tissue; host or cells: rat kidney medulla membranes
In words: Binding Assay to Rat Kidney Medullary V2 Receptors. The note with it: Rat Kidney Medullary V2 Receptors (no asterisk). As to the method:
Binding Assay to Rat Kidney Medullary V2 Receptors
Medullary tissues from rat kidneys are dissected out, cut into small pieces and let soak in a […] sodium chloride solution containing 1.0 mM EDTA with many changes of the liquid phase, until the solution is clear of blood. The tissue is homogenized in a 0.25M sucrose solution containing 1.0 mM EDTA and 0.1 mM PMSF using a Potter-Elvehjem homogenizer with a teflon pestle. The homogenate is filtered through several layers (4 layers) of cheese cloth. The filtrate is rehomogenized using a dounce homogenizer, with a tight fitting pestle. The final homogenate is contrifuged at 1500×g for 15 min. The nuclear pellet is discarded and the supernatant fluid recentrifuged at 40,000×g for 30 min. The resulting pellet formed contains a dark inner part with the exterior, slightly pink. The pink outer part is suspended in a small amount of 50.0 mM Tris.HCl buffer, pH 7.4. The protein content is determined by the Lowry's method (Lowry et al, J. Biol. Chem., 1953). The membrane suspension is stored at -70° C., in 50.0 mM Tris.HCl, containing 0.2% inactivated BSA and 0.1 mM PMSF in aliquots of 1.0 ml containing 10.0 mg protein per ml of suspension until use in subsequent binding experiments.
For binding experiments, the following is added in μl volume to wells of a 96 well format of a microtiter plate: 100.0 μl of 100.0 mM Tris.HCl buffer containing 0.2% heat inactivated BSA, 10.0 mM MgCl2 and a mixture of protease inhibitors: leupeptin, 1.0 mg %; aprotinin, 1.0 mg %; 1,10-phenanthroline, 2.0 mg %; trypsin inhibitor, 10.0 mg % and 0.1 mM PMSF, 20.0 μl of [^3 H]Arginine^8, vasopressin (S.A. 75.0 Ci/mmole) at 0.8 nM and the reaction initiated by the addition of 80.0 μl of tissue membranes (200.0 μg tissue protein). The plates are left undisturbed on the bench top for 120 min. to reach equilibrium. Non-specific binding is assessed in the presence of 1.0 μM of unlabeled ligand, added in 20 μl volume. For test compounds, these are solubilized in 50% dimethylsulfoxide (DMSO) and added in 20.0 μl volume to a final incubation volume of 200 μl. Upon completion of binding, the content of each well is filtered off, using a Brandel® cell Harvester (Gaithersburg, Md.). The radioactivity trapped on the filter disk by the ligand-receptor complex is assessed by liquid scintillation counting in a Packard LS Counter, with an efficiency of 65% for tritium. The data are analyzed for IC50 values by the LUNDON-2 program for competition (LUNDON SOFTWARE, Ohio).

The structures appear in SMILES notation.

T1 sequence (Q00788 whole entry): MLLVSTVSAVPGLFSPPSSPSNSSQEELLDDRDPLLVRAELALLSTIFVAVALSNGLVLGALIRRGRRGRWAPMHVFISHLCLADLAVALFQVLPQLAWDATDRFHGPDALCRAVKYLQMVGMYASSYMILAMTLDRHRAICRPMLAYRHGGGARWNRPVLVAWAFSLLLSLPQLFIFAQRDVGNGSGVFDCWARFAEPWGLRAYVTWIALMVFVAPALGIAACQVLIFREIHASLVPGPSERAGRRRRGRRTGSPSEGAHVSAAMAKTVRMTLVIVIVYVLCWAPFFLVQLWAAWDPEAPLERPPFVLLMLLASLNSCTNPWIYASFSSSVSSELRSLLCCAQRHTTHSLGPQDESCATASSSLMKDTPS

With `O=C(Nc1ccc(C(=O)N2CCc3cn[nH]c3-c3sccc32)cc1)c1ccc(F)cc1Cl` [Example 1, N-[4-[(4,5-Dihydropyrazolo[3,4-d]thieno[3,2-b]azepin-6(1H)-yl)carbonyl]phenyl]-2-chloro-4-fluorobenzamide], in experiment [1], the “Urine Vol. (ml/4 hrs.)” value came out at 15.3 ml/4 hrs and the “Osmolality (mOsm/kg)” value is 535 mOsm/kg. The IC50 in experiment [2] is 0.34 µM.
The like results for `O=C(Nc1ccc(C(=O)N2CCc3cn[nH]c3-c3ncccc32)cc1)c1ccccc1-c1ccccc1` [Example 365, N-[4-[(4,5-Dihydropyrazolo[3,4-d]pyrido[3,2-b]azepin-6(1H)-yl)carbonyl]phenyl][1,1'-biphenyl]-2-carboxamide] were, in that order, 2.6 ml/4 hrs, 251 mOsm/kg and 0.0016 µM.
Turning to `Cc1ccc(F)cc1C(=O)Nc1ccc(C(=O)N2CCc3c[nH]nc3-c3ncccc32)cc1` [Example 367, N-[4-[4(4,5-Dihydropyrazolo[3,4-d]pyrido[3,2-b]azepin-6(1H)-yl)carbonyl]phenyl]-5-fluoro-2-methylbenzamide], in experiment [1], the “Urine Vol. (ml/4 hrs.)” value came to 10 ml/4 hrs and the “Osmolality (mOsm/kg)” value was 627 mOsm/kg. Also, in experiment [2], the IC50 worked out at 0.03 µM.

Values taken from patent US5719278A, “Tricyclic benzazepine vasopressin antagonists” (American Cyanamid Company, priority 1996, dated 1998).
